Patent US10799605B2 (3B PHARMACEUTICALS GMBH, priority 2014, dated 2020)
Read-outs that look alike come from different tables or passages of the source.

Key:
Assay type in all cases: binding
Settings in all cases: Test Concentration 1.0E−05 M
[1] = target: D1 (h) (Homo sapiens (Human), UniProt P21728); experiment: ExpresSProfile: dopamine receptor 1, antagonist radioligand
[2] = target: norepinephrine transporter (h) (Homo sapiens (Human), UniProt P23975); experiment: ExpresSProfile: norepinephrine transporter, antagonist radioligand
[3] = target: 5-HT5a (h) (Homo sapiens (Human), UniProt P47898); experiment: ExpresSProfile: 5-hydroxytryptamine receptor 5a, agonist radioligand
[4] = target: CCR1 (h) (Homo sapiens (Human), UniProt P32246); experiment: ExpresSProfile: C-C chemokine receptor type 1, agonist radioligand
[5] = read-out: % Inhibition of Control Specific Binding
[6] = read-out: % of Control Specific Binding 1st
[7] = read-out: % of Control Specific Binding 2nd
[8] = read-out: % of Control Specific Binding Mean

Chain of D1 (h) (P21728 whole entry): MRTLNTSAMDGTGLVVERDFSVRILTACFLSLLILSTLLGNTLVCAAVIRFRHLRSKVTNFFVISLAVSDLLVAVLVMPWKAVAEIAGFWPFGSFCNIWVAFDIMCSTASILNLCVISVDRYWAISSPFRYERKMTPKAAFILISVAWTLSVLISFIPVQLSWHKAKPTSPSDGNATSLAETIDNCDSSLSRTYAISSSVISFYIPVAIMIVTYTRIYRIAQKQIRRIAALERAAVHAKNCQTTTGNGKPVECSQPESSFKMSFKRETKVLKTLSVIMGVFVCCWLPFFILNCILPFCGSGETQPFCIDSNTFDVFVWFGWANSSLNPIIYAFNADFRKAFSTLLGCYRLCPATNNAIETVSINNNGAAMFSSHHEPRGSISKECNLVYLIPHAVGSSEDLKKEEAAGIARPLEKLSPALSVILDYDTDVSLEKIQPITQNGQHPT
Chain of norepinephrine transporter (h) (P23975 whole entry): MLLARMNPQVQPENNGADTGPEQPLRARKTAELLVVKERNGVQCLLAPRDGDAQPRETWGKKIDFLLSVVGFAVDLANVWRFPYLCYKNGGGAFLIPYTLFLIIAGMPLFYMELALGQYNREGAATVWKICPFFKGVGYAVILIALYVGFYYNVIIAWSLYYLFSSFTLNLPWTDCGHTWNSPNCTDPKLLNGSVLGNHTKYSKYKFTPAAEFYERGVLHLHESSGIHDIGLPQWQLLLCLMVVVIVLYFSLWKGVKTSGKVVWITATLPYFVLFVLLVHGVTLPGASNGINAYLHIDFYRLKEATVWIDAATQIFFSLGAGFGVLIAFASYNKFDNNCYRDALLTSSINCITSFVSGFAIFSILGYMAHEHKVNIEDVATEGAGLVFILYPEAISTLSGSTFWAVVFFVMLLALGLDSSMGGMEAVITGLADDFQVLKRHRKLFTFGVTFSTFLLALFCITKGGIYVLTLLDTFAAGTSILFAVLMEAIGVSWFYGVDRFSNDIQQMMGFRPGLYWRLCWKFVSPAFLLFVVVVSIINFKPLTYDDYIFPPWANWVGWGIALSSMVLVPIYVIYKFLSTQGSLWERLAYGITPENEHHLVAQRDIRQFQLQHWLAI
Chain of CCR1 (h) (P32246 whole entry): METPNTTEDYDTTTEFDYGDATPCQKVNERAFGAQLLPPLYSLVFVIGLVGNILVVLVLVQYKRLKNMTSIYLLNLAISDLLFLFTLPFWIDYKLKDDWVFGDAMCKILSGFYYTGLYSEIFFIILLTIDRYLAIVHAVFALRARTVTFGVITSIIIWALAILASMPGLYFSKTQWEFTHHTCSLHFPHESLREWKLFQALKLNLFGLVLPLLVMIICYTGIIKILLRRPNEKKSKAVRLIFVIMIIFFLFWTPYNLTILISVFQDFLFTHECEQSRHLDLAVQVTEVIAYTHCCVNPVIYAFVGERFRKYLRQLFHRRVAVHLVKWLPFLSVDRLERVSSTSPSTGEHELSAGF
Chain of 5-HT5a (h) (P47898 whole entry): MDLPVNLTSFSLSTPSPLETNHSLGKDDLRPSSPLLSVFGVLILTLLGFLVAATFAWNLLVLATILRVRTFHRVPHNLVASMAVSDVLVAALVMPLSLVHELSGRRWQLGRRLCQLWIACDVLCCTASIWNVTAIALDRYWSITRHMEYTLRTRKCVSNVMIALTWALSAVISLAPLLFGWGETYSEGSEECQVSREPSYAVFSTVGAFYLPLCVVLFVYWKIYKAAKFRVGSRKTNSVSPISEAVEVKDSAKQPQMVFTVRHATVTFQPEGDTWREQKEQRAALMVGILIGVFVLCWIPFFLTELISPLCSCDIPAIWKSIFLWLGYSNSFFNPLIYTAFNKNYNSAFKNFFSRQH

COc1cccc(OC)c1-c1cc(C(=O)NC2(C(=O)O)C3CC4CC(C3)CC2C4)nn1-c1ccc(C(=O)N(C)CCCN(C)CCCN(C)C(=O)CN2CCN(CC(=O)O)CCN(CC(=O)O)CCN(CC(=O)O)CC2)cc1C(C)C (stereo not shown) [(IIIa), 2-{[1-{4-[(3-{[3-(DOTA-methyl-amino)-propyl]-methyl-amino}-propyl)-methyl-carbamoyl]-2-isopropyl-phenyl}-5-(2,6-dimethoxy-phenyl)-1H-pyrazole-3-carbonyl]-amino}-adamantane-2-carboxylic acid]
inhibition at 10 µM [1, 5]: -5%
remaining activity at 10 µM [1, 6]: 114%
remaining activity at 10 µM [1, 7]: 96.3%
remaining activity at 10 µM [1, 8]: 105%
inhibition at 10 µM [2, 5]: -12%
remaining activity at 10 µM [2, 6]: 119%
remaining activity at 10 µM [2, 7]: 105%
remaining activity at 10 µM [2, 8]: 112%
inhibition at 10 µM [3, 5]: -2%
remaining activity at 10 µM [3, 6]: 109%
remaining activity at 10 µM [3, 7]: 95.2%
remaining activity at 10 µM [3, 8]: 102%
inhibition at 10 µM [4, 5]: -6%
remaining activity at 10 µM [4, 6]: 103%
remaining activity at 10 µM [4, 7]: 109%
remaining activity at 10 µM [4, 8]: 106%
